In patent US20220054513A1, “COMBINATION COMPOSITIONS COMPRISING A BETA-LACTAMASE INHIBITOR” (VenatoRx Pharmaceuticals, Inc., priority 2018, published 2022):
Like-named read-outs stand apart in the source and are kept apart here.

How the values were obtained:
[1] = system: multi-drug resistant Acinetobacter baumannii; assay: broth microdilution MIC of sulbactam, ampicillin, cefepime and combinations +/- Compound 1, panel of 51 Acinetobacter isolates
[2] = system: Acinetobacter baumannii-calcoaceticus species complex clinical isolates; assay: MIC of triple combinations (Compound 1, sulbactam, meropenem or cefepime), 141 clinical isolates; assay type: cell-based; settings: Acinetobacter
From the text: For a more comprehensive assessment of the ability of test compounds to potentiate sulbactam in triple combinations with β-lactams additional MIC assays were utilized.

CC1(C)[C@H](C(=O)O)N2C(=O)C[C@H]2S1(=O)=O [SUL, Sulbactam]
4 mg/L: MIC ([1]; read-out: Minimum inhibitory concentration (MIC), strain 0307 (ADC-25, OXA-66, OXA-237)) | MIC ([1]; read-out: Minimum inhibitory concentration (MIC), strain 0312 (OXA-69)) | MIC ([1]; read-out: Minimum inhibitory concentration (MIC), strain 157876 (enzyme content ND)) | MIC ([1]; read-out: Minimum inhibitory concentration (MIC), strain 161752 (enzyme content ND)) | MIC ([1]; read-out: Minimum inhibitory concentration (MIC), strain 161755 (enzyme content ND)) | MIC ([1]; read-out: Minimum inhibitory concentration (MIC), strain 161762 (enzyme content ND))
8 mg/L: MIC ([1]; read-out: Minimum inhibitory concentration (MIC), strain 0276 (enzyme content ND)) | MIC ([1]; read-out: Minimum inhibitory concentration (MIC), strain 0297 (ADC-25, OXA-23, OXA-66)) | MIC ([1]; read-out: Minimum inhibitory concentration (MIC), strain 0303 (ADC-25, OXA-23, OXA-66)) | MIC ([1]; read-out: Minimum inhibitory concentration (MIC), strain 0304 (ADC-25, OXA-66, OXA-72)) | MIC ([1]; read-out: Minimum inhibitory concentration (MIC), strain 0305 (TEM-1B, OXA-65, OXA-24)) | MIC ([1]; read-out: Minimum inhibitory concentration (MIC), strain 0309 (OXA-23, OXA-82)) | MIC ([1]; read-out: Minimum inhibitory concentration (MIC), strain 161750 (enzyme content ND)) | MIC ([2]; strain 999306, Cmpd 1 at 4 μg/mL in combinations) | MIC ([2]; strain 1003557, Cmpd 1 at 4 μg/mL in combinations) | MIC ([2]; strain 1013022, Cmpd 1 at 4 μg/mL in combinations)
2 mg/L: MIC ([1]; read-out: Minimum inhibitory concentration (MIC), strain 0300 (ADC-25, OXA-66)) | MIC ([1]; read-out: Minimum inhibitory concentration (MIC), strain 157834 (enzyme content ND)) | MIC ([1]; read-out: Minimum inhibitory concentration (MIC), strain 157842 (enzyme content ND)) | MIC ([1]; read-out: Minimum inhibitory concentration (MIC), strain 161756 (enzyme content ND))
32 mg/L: MIC ([1]; read-out: Minimum inhibitory concentration (MIC), strain 0273 (ADC-25, OXA-23, OXA-66)) | MIC ([1]; read-out: Minimum inhibitory concentration (MIC), strain 0277 (TEM-1B, OXA-65, OXA-24)) | MIC ([1]; read-out: Minimum inhibitory concentration (MIC), strain 0278 (TEM-1D, ADC-25, OXA-23, OXA-66)) | MIC ([1]; read-out: Minimum inhibitory concentration (MIC), strain 0279 (TEM-1D, ADC-25, OXA-23, OXA-66)) | MIC ([1]; read-out: Minimum inhibitory concentration (MIC), strain 0281 (TEM-1D, ADC-25, OXA-82)) | MIC ([1]; read-out: Minimum inhibitory concentration (MIC), strain 0282 (TEM-1D, ADC-25, OXA-23, OXA-66)) | MIC ([1]; read-out: Minimum inhibitory concentration (MIC), strain 0284 (TEM-1B, OXA-65, OXA-24)) | MIC ([1]; read-out: Minimum inhibitory concentration (MIC), strain 0288 (ADC-25, OXA-23, OXA-66)) | MIC ([1]; read-out: Minimum inhibitory concentration (MIC), strain 0290 (TEM-1D, ADC-25, OXA-23, OXA-66)) | MIC ([1]; read-out: Minimum inhibitory concentration (MIC), strain 0292 (OXA-66, OXA-72)) | MIC ([1]; read-out: Minimum inhibitory concentration (MIC), strain 0295 (TEM-1D, ADC-25, OXA-23, OXA-66)) | MIC ([1]; read-out: Minimum inhibitory concentration (MIC), strain 0298 (TEM-1D, ADC-25, OXA-66, OXA-237)) | MIC ([1]; read-out: Minimum inhibitory concentration (MIC), strain 0299 (PER-7, OXA-23, OXA-203)) | MIC ([1]; read-out: Minimum inhibitory concentration (MIC), strain 0302 (OXA-23, OXA-82)) | MIC ([1]; read-out: Minimum inhibitory concentration (MIC), strain 0308 (TEM-1D, ADC-25, OXA-71)) | MIC ([1]; read-out: Minimum inhibitory concentration (MIC), strain 0310 (OXA-23, OXA-82)) | MIC ([1]; read-out: Minimum inhibitory concentration (MIC), strain 0313 (TEM-1D, OXA-23, OXA-69)) | MIC ([2]; strain 993131, Cmpd 1 at 4 μg/mL in combinations) | MIC ([2]; strain 993139, Cmpd 1 at 4 μg/mL in combinations) | MIC ([2]; strain 996707, Cmpd 1 at 4 μg/mL in combinations) | MIC ([2]; strain 996869, Cmpd 1 at 4 μg/mL in combinations) | MIC ([2]; strain 997574, Cmpd 1 at 4 μg/mL in combinations) | MIC ([2]; strain 998907, Cmpd 1 at 4 μg/mL in combinations) | MIC ([2]; strain 999343, Cmpd 1 at 4 μg/mL in combinations) | MIC ([2]; strain 1001007, Cmpd 1 at 4 μg/mL in combinations) | MIC ([2]; strain 1001143, Cmpd 1 at 4 μg/mL in combinations) | MIC ([2]; strain 1003787, Cmpd 1 at 4 μg/mL in combinations) | MIC ([2]; strain 1005265, Cmpd 1 at 4 μg/mL in combinations) | MIC ([2]; strain 1007660, Cmpd 1 at 4 μg/mL in combinations) | MIC ([2]; strain 1008510, Cmpd 1 at 4 μg/mL in combinations) | MIC ([2]; strain 1008730, Cmpd 1 at 4 μg/mL in combinations) | MIC ([2]; strain 1010383, Cmpd 1 at 4 μg/mL in combinations) | MIC ([2]; strain 1014143, Cmpd 1 at 4 μg/mL in combinations)
64 mg/L: MIC90 [1] | MIC ([1]; read-out: Minimum inhibitory concentration (MIC), strain 0274 (TEM-1D, ADC-25, OXA-66, OXA-72)) | MIC ([1]; read-out: Minimum inhibitory concentration (MIC), strain 0275 (TEM-1D, ADC-25, OXA-23, OXA-66)) | MIC ([1]; read-out: Minimum inhibitory concentration (MIC), strain 0287 (ADC-25, OXA-66, OXA-72)) | MIC ([1]; read-out: Minimum inhibitory concentration (MIC), strain 0296 (ADC-25, OXA-23, OXA-223)) | MIC ([1]; read-out: Minimum inhibitory concentration (MIC), strain 0306 (TEM-1B, OXA-65, OXA-24)) | MIC ([2]; strain 996612, Cmpd 1 at 4 μg/mL in combinations) | MIC ([2]; strain 998898, Cmpd 1 at 4 μg/mL in combinations) | MIC ([2]; strain 1002247, Cmpd 1 at 4 μg/mL in combinations) | MIC ([2]; strain 1002952, Cmpd 1 at 4 μg/mL in combinations) | MIC ([2]; strain 1004867, Cmpd 1 at 4 μg/mL in combinations) | MIC ([2]; strain 1008756, Cmpd 1 at 4 μg/mL in combinations)
128 mg/L: MIC ([1]; read-out: Minimum inhibitory concentration (MIC), strain 0280 (TEM-1D, ADC-25, OXA-66)) | MIC [2]
16 mg/L: MIC50 [1] | MIC ([1]; read-out: Minimum inhibitory concentration (MIC), strain 0283 (TEM-1D, ADC-25, OXA-23, OXA-66)) | MIC ([1]; read-out: Minimum inhibitory concentration (MIC), strain 0285 (TEM-1B, OXA-65, OXA-24)) | MIC ([1]; read-out: Minimum inhibitory concentration (MIC), strain 0286 (ADC-25, OXA-66, OXA-24)) | MIC ([1]; read-out: Minimum inhibitory concentration (MIC), strain 0289 (ADC-25, OXA-66, OXA-72)) | MIC ([1]; read-out: Minimum inhibitory concentration (MIC), strain 0291 (TEM-1D, ADC-25, OXA-23, OXA-66)) | MIC ([1]; read-out: Minimum inhibitory concentration (MIC), strain 0293 (OXA-66, OXA-72)) | MIC ([1]; read-out: Minimum inhibitory concentration (MIC), strain 0294 (TEM-1B, OXA-23, OXA-65)) | MIC ([1]; read-out: Minimum inhibitory concentration (MIC), strain 0301 (ADC-25, OXA-66, OXA-72)) | MIC ([1]; read-out: Minimum inhibitory concentration (MIC), strain 0311 (ADC-25, OXA-23, OXA-82)) | MIC ([1]; read-out: Minimum inhibitory concentration (MIC), strain 157901 (enzyme content ND)) | MIC ([1]; read-out: Minimum inhibitory concentration (MIC), strain 161760 (enzyme content ND)) | MIC ([2]; strain 990089, Cmpd 1 at 4 μg/mL in combinations) | MIC ([2]; strain 994180, Cmpd 1 at 4 μg/mL in combinations) | MIC ([2]; strain 994181, Cmpd 1 at 4 μg/mL in combinations) | MIC ([2]; strain 995771, Cmpd 1 at 4 μg/mL in combinations) | MIC ([2]; strain 998107, Cmpd 1 at 4 μg/mL in combinations) | MIC ([2]; strain 998532, Cmpd 1 at 4 μg/mL in combinations) | MIC ([2]; strain 1001611, Cmpd 1 at 4 μg/mL in combinations) | MIC ([2]; strain 1002208, Cmpd 1 at 4 μg/mL in combinations) | MIC ([2]; strain 1002688, Cmpd 1 at 4 μg/mL in combinations) | MIC ([2]; strain 1003662, Cmpd 1 at 4 μg/mL in combinations) | MIC ([2]; strain 1005290, Cmpd 1 at 4 μg/mL in combinations) | MIC ([2]; strain 1008508, Cmpd 1 at 4 μg/mL in combinations) | MIC ([2]; strain 1010245, Cmpd 1 at 4 μg/mL in combinations) | MIC ([2]; strain 1011959, Cmpd 1 at 4 μg/mL in combinations) | MIC ([2]; strain 1013035, Cmpd 1 at 4 μg/mL in combinations) | MIC ([2]; strain 1013055, Cmpd 1 at 4 μg/mL in combinations) | MIC ([2]; strain 1013322, Cmpd 1 at 4 μg/mL in combinations) | MIC ([2]; strain 1014646, Cmpd 1 at 4 μg/mL in combinations)
